How the values were obtained:
[1] = biological target: cyclophilin A (CYPA) (Homo sapiens, UniProt P62937); assay: CYPA-compound binary complex formation by SPR; details: read-out: CYPA Binding Affinity
Procedure, shortened: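 Steady-state fit of SPR responses gave binding affinity. Analyte series: 50 μM downward, 2-fold, 10 points, running buffer HBS-P+ (0.05% Tween20, pH7.4, 2% DMSO), 60 s on/60 s off. Surface: biotinylated CypA-Avi captured at 4 μg/ml against a reference cell, regenerated with NaOH/guanidine.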

[2] = biological target: T1, BRAF-GTP-KRAS-G12C complex (Homo sapiens, UniProt P01116+P62937, G12C); assay: KRAS-BRAF complex disruption through competition with CYPA-compound by TR-FRET; details: biochemical BRAF-KRAS G12C-GTP disruption assay EC50, with CYPA
T1 construct: 50 nM of His6-KRas G12C-GTP (1-169); 500 nM of tagless CypA (1-165)
Procedure, shortened: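 Compound-driven loss of KRAS–BRAF RBD TR-FRET signal, Eu-anti-His/APC-anti-GST pair (10/50 nM, 1.5 h), following a 3 h room-temperature preincubation of 50 nM His6-KRAS G12C-GTP and 500 nM CypA in 25 mM Hepes pH 7.3 buffer. EC50 by 4-parameter fit. Variants used wild-type KRAS in place of G12C or no CypA.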

[3] = system: pERK in H358 cells; assay: pERK inhibition in H358 cells; assay type: cell-based, human; details: 4 hours treatment, read-out: Cellular pERK inhibition
Procedure, shortened: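 Human lung cancer H358 cells in RPMI/10% FBS were exposed to compound or DMSO for 4 h. Fixed and permeabilized cells were stained overnight at 4 C with anti-phospho-ERK1/2 (Thr202/Tyr204). Near-infrared imaging read the pERK signal at 800 nm, with DRAQ5 at 700 nm.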

Cc1cc2ccc3cc2n1CC(C)(C)COC(=O)[C@@H]1CCCN(N1)C(=O)[C@@H](NC(=O)[C@H](C(C)C)N(C)C(=O)C1CN(C(=O)CCl)C1)Cc1cc(O)cc-3c1 [Compound 103] was tested, and the Kd [1] was > 15 µM, the EC50 [2] was ≤ 0.5 µM and the IC50 [3] was 1 to 10 µM.
In the case of CC(C)[C@@H](C(=O)N[C@H]1Cc2cc(O)cc(c2)-c2ccc3c(Cl)cn(c3c2)CC(C)(C)COC(=O)[C@@H]2CCCN(N2)C1=O)N(C)C(=O)C1CN(C(=O)CCl)C1 [Compound 104], the Kd [1] is reported as > 15 µM, the EC50 [2] is reported as ≤ 0.5 µM and the IC50 [3] is reported as ≤ 1 µM.
In the case of Cc1c(C#N)c2ccc3cc2n1CC(C)(C)COC(=O)[C@@H]1CCCN(N1)C(=O)[C@@H](NC(=O)[C@H](C(C)C)N(C)C(=O)C1CN(C(=O)CCl)C1)Cc1cc(O)cc-3c1 [Compound 106], the Kd [1] is reported as 5 to 15 µM, the EC50 [2] is reported as ≤ 0.5 µM and the IC50 [3] is reported as 1 to 10 µM.
In the case of CNC(=O)c1cn2c3cc(ccc13)-c1cc(O)cc(c1)C[C@H](NC(=O)[C@H](C(C)C)N(C)C(=O)C1CN(C(=O)CCl)C1)C(=O)N1CCC[C@H](N1)C(=O)OCC(C)(C)C2 [Compound 108], the Kd [1] is reported as 5 to 15 µM, the EC50 [2] is reported as ≤ 0.5 µM and the IC50 [3] is reported as > 10 µM.
CC(C)C(C(=O)NC1Cc2cc(O)cc(c2)-c2ccc3c(C(=O)N(C)C)cn(c3c2)CC(C)(C)COC(=O)C2CCCN(N2)C1=O)N(C)C(=O)C1CN(C(=O)CCl)C1 (stereo not drawn) [Compound 109] was tested, and the Kd [1] was > 15 µM, the EC50 [2] was ≤ 0.5 µM and the IC50 [3] was > 10 µM.
CNC(=O)c1cc2ccc3cc2n1CC(C)COC(=O)C1CCCN(N1)C(=O)C(NC(=O)C(C(C)C)N(C)C(=O)C1CN(C(=O)CCl)C1)Cc1cc(O)cc-3c1 (stereo not drawn) [Compound 115] was tested, and the Kd [1] was ≤ 5 µM, the EC50 [2] was ≤ 0.5 µM and the IC50 [3] was > 10 µM.
For CC(C)[C@@H](C(=O)N[C@H]1Cc2cc(O)cc(c2)-c2ccc3c(C4CC4)cn(c3c2)C[C@H](C)COC(=O)[C@@H]2CCCN(N2)C1=O)N(C)C(=O)C1CN(C(=O)CCl)C1 [Compound 117], the Kd [1] was 5 to 15 µM, the EC50 [2] was ≤ 0.5 µM and the IC50 [3] was ≤ 1 µM.
With CC(C)[C@@H](C(=O)N[C@H]1Cc2cc(O)cc(c2)-c2ccc3c(C4CCC4)cn(c3c2)C[C@H](C)COC(=O)[C@@H]2CCCN(N2)C1=O)N(C)C(=O)C1CN(C(=O)CCl)C1 [Compound 118] the Kd [1] was > 15 µM, the EC50 [2] was ≤ 0.5 µM and the IC50 [3] was 1 to 10 µM.
CC(C)[C@@H](C(=O)N[C@H]1Cc2cc(O)cc(c2)-c2ccc3ncn(c3c2)CC(C)(C)COC(=O)[C@@H]2CCCN(N2)C1=O)N(C)C(=O)C1CN(C(=O)CCl)C1 [Compound 139] was tested, and the Kd [1] was 5 to 15 µM, the EC50 [2] was ≤ 0.5 µM and the IC50 [3] was > 10 µM.
COCc1nc2ccc3cc2n1CC(C)(C)COC(=O)[C@@H]1CCCN(N1)C(=O)[C@@H](NC(=O)[C@H](C(C)C)N(C)C(=O)C1CN(C(=O)CCl)C1)Cc1cc(O)cc-3c1 [Compound 143] was tested, and the Kd [1] was 5 to 15 µM, the EC50 [2] was ≤ 0.5 µM and the IC50 [3] was > 10 µM.
Cc1nc2ccc3cc2n1C[C@H](C)COC(=O)[C@@H]1CCCN(N1)C(=O)[C@@H](NC(=O)[C@H](C(C)C)N(C)C(=O)C1CN(C(=O)CCl)C1)Cc1cc(O)cc-3c1 [Compound 147] was tested, and the Kd [1] was ≤ 5 µM, the EC50 [2] was ≤ 0.5 µM and the IC50 [3] was > 10 µM.
In the case of Cc1nc2ccc3cc2n1CC1(CC1)COC(=O)[C@@H]1CCCN(N1)C(=O)[C@@H](NC(=O)[C@H](C(C)C)N(C)C(=O)C1CN(C(=O)CCl)C1)Cc1cc(O)cc-3c1 [Compound 151], the Kd [1] is reported as 5 to 15 µM, the EC50 [2] is reported as ≤ 0.5 µM and the IC50 [3] is reported as > 10 µM.
For C=CS(=O)(=O)N1CCN([C@H](C(=O)N[C@H]2Cc3cc(O)cc(c3)-c3ccc4nc(C)n(c4c3)CC(C)(C)COC(=O)[C@@H]3CCCN(N3)C2=O)C(C)C)C1=O [Compound 152], the Kd [1] was 5 to 15 µM, the EC50 [2] was ≤ 0.5 µM and the IC50 [3] was 1 to 10 µM.
For CC(C)[C@@H](C(=O)N[C@H]1Cc2cc(O)cc(c2)-c2cc3c(ccc(C#N)c3s2)OCCCOC(=O)[C@@H]2CCCN(N2)C1=O)N(C)C(=O)C1CN(C(=O)CCl)C1 [Compound 172], the Kd [1] was 5 to 15 µM, the EC50 [2] was 0.5 to 5 µM and the IC50 [3] was > 10 µM.
In the case of CC(C)[C@@H](C(=O)N[C@H]1Cc2cc(O)cc(c2)-c2ccc3nnn(c3c2)CC(C)(C)COC(=O)[C@@H]2CCCN(N2)C1=O)N(C)C(=O)C1CN(C(=O)CCl)C1 [Compound 175], the Kd [1] is reported as 5 to 15 µM, the EC50 [2] is reported as ≤ 0.5 µM and the IC50 [3] is reported as > 10 µM.
